Among the test systems are NCI-H460 lung; HCT-15 colon; BT-549 breast; A549 NSCLC; NCI-H23 lung; UO-31 renal; CAKI-1 renal; A498 renal; HS 578T breast; SK-MEL-28 melanoma.
What all share (test): inhibition of tumour cell growth, NCI panel, 48 h

The structures appear in SMILES notation.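 Results reflect a 48-hour exposure of cells in 96-well plates to compound at five concentrations. GI50 = concentration required for 50% inhibition of growth. TGI: concentration producing complete growth inhibition.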

In the case of `COC1=CC(c2ccc[nH]2)=N/C1=C\c1[nH]c(C)c(C(=O)CCCCCCCCC(=O)O[C@H]2CC[C@H]3C4CCc5cc(O)ccc5C4CC[C@]23C)c1C` (stereo not given in full), the GI50 in the assay on NCI-H460 lung was 0.536 µM; in the assay on HCT-15 colon, 1.55 µM; in the assay with BT-549 breast it was 0.618 µM; in the assay on A549 NSCLC, 1.11 µM; in the assay with NCI-H23 lung it was 1.85 µM; in the assay on UO-31 renal, 1.18 µM. Further, the GI50 is 1.1 µM with CAKI-1 renal, 1.28 µM with A498 renal, 0.411 µM in the assay on HS 578T breast and 0.841 µM with SK-MEL-28 melanoma. The TGI in the assay on NCI-H460 lung is greater than 50 µM; in the assay with HCT-15 colon it was greater than 50 µM; with BT-549 breast, greater than 45.1 µM; with A549 NSCLC it was 8.88 µM; in the assay on NCI-H23 lung, greater than 50 µM; in the assay with UO-31 renal, 5.3 µM. The TGI with CAKI-1 renal was greater than 28.4 µM; with A498 renal, greater than 43.8 µM; in the assay with HS 578T breast, greater than 33.9 µM; with SK-MEL-28 melanoma it was greater than 50 µM.

On to `N#C/C(=C\c1ccc2[nH]ccc2c1)C(=O)NCCCCNC(=O)/C(C#N)=C/c1ccc2[nH]ccc2c1`, for which the TGI with NCI-H460 lung is greater than 31.6 µM; in the assay with HCT-15 colon, greater than 31.6 µM; in the assay with BT-549 breast, greater than 10 µM; in the assay on A549 NSCLC, greater than 100 µM; in the assay on NCI-H23 lung, greater than 31.6 µM; in the assay on UO-31 renal, greater than 31.6 µM. Also, the TGI was greater than 31.6 µM in the assay on CAKI-1 renal, greater than 31.6 µM with A498 renal, greater than 10 µM with HS 578T breast and greater than 31.6 µM in the assay on SK-MEL-28 melanoma.

Turning to `CCCC(=O)O[C@]1(C)CC[C@@H]2[C@H]3[C@@H]1[C@@H]1C[C@@](C)(O)[C@H](OC)CC[C@](C)(OC(=O)[C@@H]2C)[C@H]3O1`, the GI50 in the assay with NCI-H460 lung was 56.3 µM; in the assay on HCT-15 colon it was 47 µM; in the assay on BT-549 breast it was 40.3 µM; in the assay on A549 NSCLC, 40.6 µM; in the assay with NCI-H23 lung, 96.1 µM; with UO-31 renal it was 40.4 µM. Further, the GI50 in the assay on CAKI-1 renal was 18.6 µM; in the assay with A498 renal, 35.4 µM; in the assay with HS 578T breast it was 28.8 µM; with SK-MEL-28 melanoma, 19.9 µM. The TGI in the assay on NCI-H460 lung, with HCT-15 colon, in the assay on BT-549 breast, with A549 NSCLC, in the assay with NCI-H23 lung and with UO-31 renal was greater than 100 µM each time. The TGI in the assay with CAKI-1 renal is 39.8 µM; in the assay with A498 renal, greater than 100 µM; in the assay on HS 578T breast, 72.7 µM; in the assay on SK-MEL-28 melanoma it was 35 µM.

In the case of `CCCCCCCC(=O)OCC/C=C/C1OC1C1OC(=O)/C=C\C=C\C(=O)N(C(C)=O)C(=O)/C=C(/C)CCC2OC2C1OC(=O)NC(C)=O` (stereo not given), the GI50 with NCI-H460 lung is 11.4 µM; with HCT-15 colon, 5.13 µM; in the assay on BT-549 breast it was 6.43 µM; in the assay with A549 NSCLC, 21.6 µM; in the assay on NCI-H23 lung, 5.07 µM; with UO-31 renal, 1.82 µM. Moreover, the GI50 in the assay on CAKI-1 renal was 15 µM; with A498 renal, 22.6 µM; in the assay on HS 578T breast it was 5.22 µM; with SK-MEL-28 melanoma it was 5.12 µM. For the same molecule, the TGI in the assay on NCI-H460 lung is greater than 25 µM; in the assay on HCT-15 colon it was 18.4 µM; with BT-549 breast it was greater than 25 µM; with A549 NSCLC it was greater than 25 µM; in the assay with NCI-H23 lung, 12.8 µM; in the assay with UO-31 renal it was 10.8 µM. Moreover, the TGI is greater than 25 µM in the assay on CAKI-1 renal, greater than 25 µM in the assay with A498 renal, 15.8 µM in the assay with HS 578T breast and 14.3 µM in the assay on SK-MEL-28 melanoma.

With `CC(C)Cc1cnc(CC(C)C)c(=O)[nH]1`, the TGI with NCI-H460 lung, in the assay on HCT-15 colon, in the assay with BT-549 breast, in the assay with A549 NSCLC, in the assay on NCI-H23 lung and with UO-31 renal was greater than 100 µM each time. For the same molecule, the TGI in the assay on CAKI-1 renal, in the assay with A498 renal, in the assay on HS 578T breast and in the assay on SK-MEL-28 melanoma was greater than 100 µM in each case.

`Cc1ccc(/C(=N/Nc2ccc([N+](=O)[O-])cc2)Sc2cc(Cl)c(C)cc2S(N)(=O)=O)cc1`: the GI50 in the assay with NCI-H460 lung is 2.55 µM; in the assay with HCT-15 colon, 3.64 µM; in the assay with BT-549 breast, 10.4 µM; in the assay on A549 NSCLC, 2.55 µM; in the assay on NCI-H23 lung, 1.64 µM; in the assay with UO-31 renal it was 2.56 µM. Further, the GI50 in the assay with CAKI-1 renal was 1.61 µM; in the assay with A498 renal, 1.87 µM; with HS 578T breast, 2.45 µM; in the assay on SK-MEL-28 melanoma, 3.03 µM. Further, the TGI in the assay with NCI-H460 lung was 9.07 µM; with HCT-15 colon, greater than 49.6 µM; with BT-549 breast, 26 µM; in the assay on A549 NSCLC it was 7.45 µM; in the assay with NCI-H23 lung, 3.59 µM; in the assay with UO-31 renal it was 10.7 µM. In addition, the TGI is 3.27 µM with CAKI-1 renal, 4.55 µM with A498 renal, greater than 23.5 µM with HS 578T breast and 8.9 µM with SK-MEL-28 melanoma.

Take `Cn1c(I)c(C#C[Si](C)(C)C)c(=O)n(C(=O)c2ccccc2)c1=O`: the GI50 in the assay with NCI-H460 lung is 8.34 µM; in the assay with HCT-15 colon it was 2.45 µM; in the assay on BT-549 breast it was 12.2 µM; with A549 NSCLC, 5.63 µM; with NCI-H23 lung, 8.28 µM; in the assay on UO-31 renal, 2.66 µM. Also, the GI50 in the assay with CAKI-1 renal is 2.56 µM; with A498 renal, 10.9 µM; with HS 578T breast it was 7.12 µM; with SK-MEL-28 melanoma, 2.03 µM. In addition, the TGI was 26.2 µM in the assay on NCI-H460 lung; 7.3 µM in the assay on HCT-15 colon; 25.6 µM in the assay with BT-549 breast; 24.8 µM in the assay on A549 NSCLC; 27.8 µM in the assay with NCI-H23 lung; 11.9 µM with UO-31 renal. Further, the TGI was determined as 6.85 µM in the assay on CAKI-1 renal, 24.3 µM with A498 renal, 23.6 µM in the assay on HS 578T breast and 3.8 µM in the assay with SK-MEL-28 melanoma.

On to `COC(=O)C(C(=O)C(=O)Nc1c(C)cccc1C(C)(C)C)c1nc2ccc(Cl)cc2[nH]c1=O` (stereo not given), for which the TGI in the assay on NCI-H460 lung, in the assay on HCT-15 colon, in the assay with BT-549 breast, in the assay with A549 NSCLC, in the assay on NCI-H23 lung and in the assay on UO-31 renal was greater than 100 µM throughout. In addition, the TGI with CAKI-1 renal, with A498 renal, in the assay with HS 578T breast and in the assay with SK-MEL-28 melanoma was greater than 100 µM in each case.

`O=S(=O)(NC1=NCCN1C(=S)SN1CCn2c1nsc2=S)c1ccc(Cl)cc1`: the GI50 in the assay on NCI-H460 lung was 10.2 µM; with HCT-15 colon, 11.9 µM; in the assay with BT-549 breast, 2.28 µM; in the assay on A549 NSCLC, 12.8 µM; in the assay on NCI-H23 lung it was 14.4 µM; in the assay with UO-31 renal, 2.28 µM. The GI50 was 6.49 µM in the assay on CAKI-1 renal, 17.4 µM with A498 renal, 14 µM in the assay with HS 578T breast and 4.85 µM in the assay with SK-MEL-28 melanoma. Further, the TGI in the assay with NCI-H460 lung was 38.6 µM; in the assay with HCT-15 colon, 28.2 µM; in the assay with BT-549 breast it was 6.48 µM; with A549 NSCLC, 37.8 µM; in the assay with NCI-H23 lung it was 32.6 µM; in the assay with UO-31 renal, 5.92 µM. Further, the TGI in the assay with CAKI-1 renal stood at 27.7 µM; with A498 renal, 42.2 µM; in the assay with HS 578T breast it was 75.2 µM; with SK-MEL-28 melanoma it was 20.7 µM.
